In PubChem BioAssay AID1224920 (Broad Institute, 2016):
pIC50: −log10 of the molar value. Where “and” joins values, the source holds several entries; their conditions need not be identical. Identical values can stand only once. Calls of active or inactive are those of the source.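 The calls were made as follows: active = IC50 no higher than ten times the top tested dose; inconclusive = flat fit with 30 to 70% inhibition, or poor fit; inactive = IC50 above ten times the top dose.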

System: Clostridium difficile clinical isolate growth, OD600, 24 h
Test: growth modulation of Clostridium difficile isolate – OD600, 9-point, retest, dose response (AID 1224920);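 also: inhibitors lower culture turbidity so OD600 falls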

O=C(C[C@@H]1CC[C@@H]2[C@H](COC[C@H](O)CN2C(=O)Nc2ccc(Cl)c(Cl)c2)O1)NC1CCC1
pIC50: 4.69

O=S(=O)(Cc1ccccc1)N1C[C@@H]2N[C@H](C1)C2c1ccc(-c2ccccc2)cc1 (stereo not given in full)
pIC50: 4.22

Fc1cccc(-c2ccc(C3[C@H]4CNC[C@@H]3N4Cc3ccccc3F)cc2)c1 (stereo not given in full)
pIC50: 4.22

Cc1ccc(-c2ccc([C@@H]3[C@H](CO)N4CCCCN(C(=O)c5ccc(F)cc5)C[C@@H]34)cc2)cc1
pIC50: 4.61

FC(F)(F)c1cccc(CN2[C@@H]3CNC[C@H]2[C@@H]3c2ccc(-c3cccnc3)cc2)c1
pIC50: 3.99

O=C(Nc1ccc(C(F)(F)F)cc1)N1C[C@@H]2N[C@H](C1)C2c1ccc(-c2ccccc2)cc1 (stereo not given in full)
pIC50: 5.50 and 5.34

CCNC(=O)C[C@@H]1CC[C@@H]2[C@H](COC[C@H](O)CN2C(=O)Nc2ccc(C(F)(F)F)cc2)O1
pIC50: 4.79

Cc1ccccc1-c1ccc(C2[C@@H]3CN(C(=O)NC4CCCCC4)C[C@H]2N3)cc1 (stereo not given in full)
pIC50: 4.24

O=C(c1ccc(F)cc1)N1C[C@@H]2N[C@H](C1)C2c1ccc(/C=C/c2ccccc2)cc1 (stereo not given in full)
pIC50: 4.89

COc1ccccc1NC(=O)N1C[C@@H]2N[C@H](C1)C2c1ccc(/C=C/c2ccccc2)cc1 (stereo not given in full)
pIC50: 4.97

COc1ccc(C#Cc2ccc([C@@H]3[C@@H](CO)N4CCCCN(C(=O)Nc5ccc(F)cc5)C[C@H]34)cc2)cc1
pIC50: 4.69

CCCNC(=O)C[C@H]1CC[C@@H]2[C@H](COC[C@@H](O)CN2C(=O)Nc2ccc(Cl)c(Cl)c2)O1
pIC50: 4.68

COc1ccc(C#Cc2ccc([C@H]3[C@H](CO)N4CCCCN(Cc5ccccc5F)C[C@@H]34)cc2)cc1
pIC50: 4.96

COc1ccc(S(=O)(=O)N2CCCCN3[C@H](CO)[C@H](c4ccc(C5=CCCCC5)cc4)[C@H]3C2)cc1
pIC50: 4.53

CCNC(=O)C[C@H]1CC[C@H]2[C@@H](COC[C@@H](O)CN2C(=O)Nc2ccc(C(F)(F)F)cc2)O1
pIC50: 5.08

CC(C)CC#Cc1ccc([C@@H]2[C@@H](CO)N3CCCCN(C(=O)Nc4ccccc4)C[C@H]23)cc1
pIC50: 4.96

OC[C@@H]1Nc2ccc(-c3ccc(F)cc3)cc2[C@H]2[C@@H]1CCN2Cc1ccc(F)cc1
pIC50: 4.04

Cc1cccc(-c2ccc(C3[C@@H]4CN(Cc5cccc(F)c5)C[C@H]3N4)cc2)c1 (stereo not given in full)
pIC50: 5.23 and 5.06

COc1cccc(-c2ccc(C3[C@H]4CNC[C@@H]3N4Cc3cc(F)ccc3F)cc2)c1 (stereo not given in full)
pIC50: 4.52

O=C(C1CCCCC1)N1CC[C@@H]2[C@H]1c1cc(C#Cc3ccc(F)cc3)ccc1N[C@@H]2CO
pIC50: 4.34

Cc1ccccc1S(=O)(=O)N1C[C@@H]2N[C@H](C1)C2c1ccc(-c2cccc(C#N)c2)cc1 (stereo not given in full)
pIC50: 4.04

COc1ccc2c3c(n(C)c2c1)[C@@H](CO)NCC31CN(Cc2ccc(Cl)cc2)C1
pIC50: 4.30

O=C(Nc1ccccc1)N1CCCCN2[C@H](CO)[C@@H](c3ccc(C#Cc4ccccc4)cc3)[C@H]2C1
pIC50: 4.48

O=S(=O)(c1ccccc1F)N1[C@@H]2CNC[C@H]1C2c1ccc(/C=C/c2ccccc2)cc1 (stereo not given in full)
pIC50: 4.13

O=C(Nc1ccc(Cl)cc1)N1[C@@H]2CNC[C@H]1C2c1ccc(-c2ccccc2)cc1 (stereo not given in full)
pIC50: 4.22

O=C(Nc1cccc(F)c1)N1CCCCN2[C@H](CO)[C@@H](c3ccc(-c4ccccc4F)cc3)[C@H]2C1
pIC50: 4.53

O=C(Nc1ccccc1F)N1CCCCN2[C@H](CO)[C@H](c3ccc(/C=C/c4ccccc4)cc3)[C@H]2C1
pIC50: 4.98

O=C(Nc1ccc(C(F)(F)F)cc1)N1[C@@H]2CNC[C@H]1C2c1ccc(-c2ccccc2F)cc1 (stereo not given in full)
pIC50: 4.99 and 4.08

O=C(c1cccc(F)c1)N1CCCCN2[C@H](CO)[C@H](c3ccc(/C=C/c4ccccc4)cc3)[C@H]2C1
pIC50: 3.85

COc1ccc(-c2ccc(C3[C@@H]4CN(Cc5ccccn5)C[C@H]3N4)cc2)cc1 (stereo not given in full)
pIC50: 4.15

COc1cccc(S(=O)(=O)N2[C@@H]3CNC[C@H]2C3c2ccc(/C=C/c3ccccc3)cc2)c1 (stereo not given in full)
pIC50: 4.62

Fc1cccc(CN2C[C@@H]3N[C@H](C2)C3c2ccc(-c3ccccc3)cc2)c1 (stereo not given in full)
pIC50: 5.08 and 4.98

N#Cc1ccc(-c2ccc3c(c2)[C@H]2[C@H](CCN2C(=O)c2ccncc2)[C@H](CO)N3)cc1
IC50: > 120 µM (inactive)

O=C(c1cccc(F)c1)N1CC[C@H]2[C@H](CO)Nc3ccc(-c4cccc(F)c4)cc3[C@H]21
pIC50: 3.91

O=C(C[C@H]1CC[C@@H]2[C@H](COC[C@@H](O)CN2C(=O)Nc2ccc(Cl)c(Cl)c2)O1)NC1CCC1
pIC50: 4.56

O=C(Nc1ccccc1)N1CCCCN2[C@@H](CO)[C@H](c3ccc(C#Cc4ccccc4)cc3)[C@@H]2C1
pIC50: 4.72

Fc1ccc(F)c(CN2[C@@H]3CNC[C@H]2C3c2ccc(-c3ccccc3)cc2)c1 (stereo not given in full)
pIC50: 4.35

Cc1cccc(-c2ccc(C3[C@@H]4CN(Cc5ccccc5)C[C@H]3N4)cc2)c1 (stereo not given in full)
pIC50: 4.77

OC[C@H]1[C@H](c2ccc(C#CC3CCCC3)cc2)[C@@H]2CN(CCC(F)(F)F)CCCCN12
pIC50: 4.46

COc1cccc(-c2ccc(C3[C@@H]4CN(S(=O)(=O)Cc5ccccc5)C[C@H]3N4)cc2)c1 (stereo not given in full)
pIC50: 4.28

COc1ccc(C#Cc2ccc([C@@H]3[C@@H](CO)N4CCCCN(C(=O)Nc5cccc(F)c5)C[C@H]34)cc2)cc1
pIC50: 4.84

Cc1ccccc1-c1ccc([C@H]2[C@@H](CO)N3CCCCN(C(=O)Nc4ccc(F)cc4)C[C@H]23)cc1
pIC50: 4.56

COc1ccccc1NC(=O)N1CCCCN2[C@H](CO)[C@H](c3ccc(-c4ccc(C)cc4)cc3)[C@H]2C1
pIC50: 4.84

O=C(C[C@H]1CC[C@@H]2[C@H](COC[C@H](O)CN2C(=O)Nc2ccc(C(F)(F)F)cc2)O1)NCC1CCCCC1
pIC50: 5.21

OC[C@H]1Nc2ccc(-c3ccccc3)cc2[C@@H]2[C@H]1CCN2Cc1ccccc1F
pIC50: 3.89

COc1ccccc1CN1C[C@@H]2N[C@H](C1)C2c1ccc(-c2ccc(C#N)cc2)cc1 (stereo not given in full)
pIC50: 4.35

COc1cc(CN2C[C@@H]3N[C@H](C2)C3c2ccc(/C=C/c3ccccc3)cc2)cc(OC)c1 (stereo not given in full)
pIC50: 5.02

C(=C\c1ccc(C2[C@@H]3CN(Cc4ccc5c(c4)OCO5)C[C@H]2N3)cc1)/c1ccccc1 (stereo not given in full)
pIC50: 5.16 and 5.18

COc1ccccc1CN1CC[C@@H]2[C@H](CO)Nc3ccc(C#Cc4ccccc4)cc3[C@@H]21
pIC50: 4.51

O=C(Nc1ccccc1)N1C[C@@H]2N[C@H](C1)[C@@H]2c1ccc(/C=C/c2ccccc2)cc1
pIC50: 4.89

COc1cccc(CN2C[C@@H]3N[C@H](C2)C3c2ccc(-c3ccccc3C)cc2)c1 (stereo not given in full)
pIC50: 5.26 and 4.88

O=S(=O)(c1ccc(F)cc1)N1C[C@@H]2N[C@H](C1)C2c1ccc(-c2ccc(F)cc2)cc1 (stereo not given in full)
pIC50: 3.89

Fc1cccc(CN2C[C@@H]3N[C@H](C2)C3c2ccc(/C=C/c3ccccc3)cc2)c1 (stereo not given in full)
pIC50: 5.74 and 5.35

O=C(Nc1ccccc1)N1C[C@@H]2N[C@H](C1)C2c1ccc(-c2ccccc2)cc1 (stereo not given in full)
pIC50: 4.22

Cc1cccc(-c2ccc(C3[C@@H]4CN(Cc5ccccc5F)C[C@H]3N4)cc2)c1 (stereo not given in full)
pIC50: 5.21

OC[C@@H]1Nc2ccc(C#Cc3cccc(F)c3)cc2[C@H]2NCC[C@@H]12
pIC50: 4.42

CCCN(C)C[C@@H]1OCCCC[C@@H](C)Oc2ccc(NC(=O)Nc3ccc(C(F)(F)F)cc3)cc2C(=O)N([C@H](C)CO)C[C@H]1C
pIC50: 4.50

C/C=C/c1ccc(C2[C@@H]3CN(Cc4cccc(F)c4)C[C@H]2N3)cc1 (stereo not given in full)
pIC50: 4.84 and 4.56

COc1ccccc1S(=O)(=O)N1C[C@@H]2N[C@H](C1)C2c1ccc(-c2cccc(C)c2)cc1 (stereo not given in full)
pIC50: 4.27

O=C(C[C@@H]1CC[C@@H]2[C@H](COC[C@H](O)CN2C(=O)Nc2cc(Cl)cc(Cl)c2)O1)N1CCOCC1
pIC50: 4.69

O=C(Nc1ccccc1F)N1C[C@@H]2N[C@H](C1)C2c1ccc(/C=C/c2ccccc2)cc1 (stereo not given in full)
pIC50: 4.90

N#Cc1cccc(-c2ccc(C3[C@@H]4CN(Cc5ccccc5F)C[C@H]3N4)cc2)c1 (stereo not given in full)
pIC50: 4.54 and 4.58

COc1cccc(-c2ccc(C3[C@H]4CNC[C@@H]3N4Cc3ccc4c(c3)OCO4)cc2)c1 (stereo not given in full)
pIC50: 4.52

O=C(C[C@H]1CC[C@H]2[C@@H](COC[C@@H](O)CN2C(=O)Nc2ccc(C(F)(F)F)cc2)O1)NC1Cc2ccccc2C1
pIC50: 4.78

CC(C)CC#Cc1ccc([C@H]2[C@H](CO)N3CCCCN(C(=O)Nc4ccccc4)C[C@@H]23)cc1
pIC50: 4.95

COc1ccc(C#Cc2ccc([C@@H]3[C@H](CO)N4CCCCN(C(=O)Nc5ccc(F)cc5)C[C@@H]34)cc2)cc1
pIC50: 5.18

COc1ccccc1NC(=O)N1CCCCN2[C@@H](CO)[C@H](c3ccc(-c4cccc(C)c4)cc3)[C@@H]2C1
pIC50: 4.03

Cc1ccc(S(=O)(=O)N2[C@@H]3CNC[C@H]2C3c2ccc(-c3cccc(C)c3)cc2)cc1 (stereo not given in full)
pIC50: 4.49

Cc1cccc(S(=O)(=O)N2C[C@@H]3N[C@H](C2)C3c2ccc(-c3ccccc3F)cc2)c1 (stereo not given in full)
pIC50: 4.95

OC[C@@H]1Nc2ccc(C#Cc3ccc(F)cc3)cc2[C@H]2NCC[C@@H]12
pIC50: 4.23

Cc1ccc(S(=O)(=O)N2[C@@H]3CNC[C@H]2C3c2ccc(-c3ccccc3C)cc2)cc1 (stereo not given in full)
pIC50: 4.51

COc1cc(CN2[C@@H]3CNC[C@H]2C3c2ccc(/C=C/c3ccccc3)cc2)cc(OC)c1 (stereo not given in full)
pIC50: 4.91

O=C(Nc1ccc(F)cc1)N1[C@@H]2CNC[C@H]1C2c1ccc(-c2ccccc2)cc1 (stereo not given in full)
pIC50: 4.08

Cc1ccc(-c2ccc(C3[C@@H]4CN(S(=O)(=O)c5cccc(C)c5)C[C@H]3N4)cc2)cc1 (stereo not given in full)
pIC50: 5.06

O=C(Nc1ccc(F)cc1)N1CCCCN2[C@@H](CO)[C@@H](c3ccc(-c4cccc(F)c4)cc3)[C@@H]2C1
pIC50: 4.88

CCNC(=O)C[C@@H]1CC[C@H]2[C@@H](COC[C@@H](O)CN2C(=O)Nc2ccc(C(F)(F)F)cc2)O1
pIC50: 4.91

COc1cccc(-c2ccc(C3[C@@H]4CN(S(=O)(=O)c5ccccc5F)C[C@H]3N4)cc2)c1 (stereo not given in full)
pIC50: 4.09

COc1ccccc1NC(=O)N1CCCCN2[C@@H](CO)[C@@H](c3ccc(-c4ccc(C)cc4)cc3)[C@@H]2C1
pIC50: 4.54

COc1cccc(-c2ccc(C3[C@@H]4CN(S(=O)(=O)c5cccc(OC)c5)C[C@H]3N4)cc2)c1 (stereo not given in full)
pIC50: 4.61

COc1ccccc1CN1C[C@@H]2N[C@H](C1)C2c1ccc(-c2ccccc2OC)cc1 (stereo not given in full)
pIC50: 4.45 and 4.42

O=C(Nc1cccc(Cl)c1)N1[C@@H]2CNC[C@H]1C2c1ccc(-c2ccccc2)cc1 (stereo not given in full)
pIC50: 4.35 and 4.13

Cc1cccc(-c2ccc([C@@H]3[C@H]4CN(CCC(F)(F)F)CCCCN4[C@H]3CO)cc2)c1
pIC50: 4.18

COc1ccc(C#Cc2ccc([C@@H]3[C@@H](CO)N4CCCCN(Cc5ccccc5F)C[C@@H]34)cc2)cc1
pIC50: 4.59

O=C(Nc1ccccc1)N1CCCCN2[C@@H](CO)[C@@H](c3ccc(-c4ccccc4F)cc3)[C@@H]2C1
pIC50: 4.55

CC(C)CC#Cc1ccc([C@H]2[C@@H](CO)N3CCCCN(C(=O)Nc4ccccc4)C[C@H]23)cc1
pIC50: 4.89
